Where “and” joins values, the source holds several entries; their conditions need not be identical. Identical values can stand only once. Toxic doses and inconclusive results are not listed. Cut-off read from the data, not from the text of the source: active = T/C of 150% or more; inactive = T/C below 125%.
Tested on: L1210 leukemia ip in BDF1 mice, survival T/C
Experiment: NCI In Vivo Anticancer Drug Screen. Data for tumor model L1210 Leukemia (intraperitoneal) in B6D2F1 (BDF1) mice
Conditions: endpoint: mean survival time, higher = longer survival
Summary of the method: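 Transplantable tumor model; survival measured in treated vs vehicle control mice. Value = treated/control.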

[1] = dose: 100.0 mg/kg/injection, schedule: Q04DX003 (ip), vehicle: saline
[2] = dose: 200.0 mg/kg/injection, schedule: Q04DX003 (ip), vehicle: saline
[3] = dose: 100.0 mg/kg/injection, schedule: Q01DX009 (ip), vehicle: saline with Tween-80
[4] = dose: 200.0 mg/kg/injection, schedule: Q01DX009 (ip), vehicle: saline with Tween-80
[5] = dose: 100.0 mg/kg/injection, schedule: Q01DX001 (ip), vehicle: saline with Tween-80
[6] = dose: 200.0 mg/kg/injection, schedule: Q01DX001 (ip), vehicle: saline with Tween-80
[7] = dose: 400.0 mg/kg/injection, schedule: Q01DX001 (ip), vehicle: saline with Tween-80
[8] = dose: 100.0 mg/kg/injection, schedule: Q01DX001 (ip), vehicle: Klucel (hydroxypropylcellulose) (HPC)
[9] = dose: 200.0 mg/kg/injection, schedule: Q01DX001 (ip), vehicle: Klucel (hydroxypropylcellulose) (HPC)
[10] = dose: 400.0 mg/kg/injection, schedule: Q01DX001 (ip), vehicle: Klucel (hydroxypropylcellulose) (HPC)
[11] = dose: 100.0 mg/kg/injection, schedule: Q04DX002 (ip), vehicle: saline with Tween-80
[12] = dose: 200.0 mg/kg/injection, schedule: Q04DX002 (ip), vehicle: saline with Tween-80
[13] = dose: 100.0 mg/kg/injection, schedule: Q01DX009 (ip), vehicle: Klucel (hydroxypropylcellulose) (HPC)
[14] = dose: 100.0 mg/kg/injection, schedule: Q04DX003 (ip), vehicle: Klucel (hydroxypropylcellulose) (HPC)
[15] = dose: 200.0 mg/kg/injection, schedule: Q01DX009 (ip), vehicle: Klucel (hydroxypropylcellulose) (HPC)
[16] = dose: 200.0 mg/kg/injection, schedule: Q04DX003 (ip), vehicle: Klucel (hydroxypropylcellulose) (HPC)
[17] = dose: 400.0 mg/kg/injection, schedule: Q01DX009 (ip), vehicle: Klucel (hydroxypropylcellulose) (HPC)
[18] = dose: 400.0 mg/kg/injection, schedule: Q04DX003 (ip), vehicle: Klucel (hydroxypropylcellulose) (HPC)
[19] = dose: 75.0 mg/kg/injection, schedule: Q01DX001 (ip), vehicle: saline
[20] = dose: 150.0 mg/kg/injection, schedule: Q01DX001 (ip), vehicle: saline
[21] = dose: 100.0 mg/kg/injection, schedule: Q04DX002 (ip), vehicle: Klucel (hydroxypropylcellulose) (HPC)
[22] = dose: 200.0 mg/kg/injection, schedule: Q04DX002 (ip), vehicle: Klucel (hydroxypropylcellulose) (HPC)

Measured: T/C

O=C(O)C1C[n+]2ccccc2O1 (configuration not stated)
inactive: dose: 50.0 mg/kg/injection, schedule: Q01DX009 (ip), vehicle: saline 116 % of control | [1] 97 % of control | [2] 103 % of control

Oc1ccccc1SSc1ccccc1O
inactive: dose: 50.0 mg/kg/injection, schedule: Q01DX009 (ip), vehicle: saline with Tween-80 100 % of control | [3] 104 % of control | [4] 103 % of control

O=C(O)c1c(F)c(F)c(-c2c(F)c(F)c(C(=O)O)c(F)c2F)c(F)c1F
inactive: [5] 93 % of control | [6] 95 % of control | [7] 93 % of control

CCCCCCCCCCCCCCCCCC[n+]1ccccc1
inactive: dose: 0.09 mg/kg/injection, schedule: Q01DX009 (ip), vehicle: saline with Tween-80 89 % of control | dose: 0.19 mg/kg/injection, schedule: Q01DX009 (ip), vehicle: saline with Tween-80 99 % of control | dose: 0.39 mg/kg/injection, schedule: Q01DX009 (ip), vehicle: saline with Tween-80 96 % of control

CC(=O)c1ccc(OCC(=O)O)cc1
inactive: [8] 97 % of control | [9] 97 % of control | [10] 101 % of control

O=[N+]([O-])c1ccc(-n2cnnn2)cc1
inactive: dose: 100.0 mg/kg/injection, schedule: Q01DX001 (ip), vehicle: carboxymethylcellulose (CMC) 94 % of control | dose: 200.0 mg/kg/injection, schedule: Q01DX001 (ip), vehicle: carboxymethylcellulose (CMC) 100 % of control | dose: 400.0 mg/kg/injection, schedule: Q01DX001 (ip), vehicle: carboxymethylcellulose (CMC) 91 % of control

CS(=O)(=O)OCCN(CCOS(C)(=O)=O)c1ccc(C=Nc2cccc(Cl)c2)cc1
inactive: dose: 1.25 mg/kg/injection, schedule: Q04DX003 (ip), vehicle: Klucel (hydroxypropylcellulose) (HPC) 107 % of control | dose: 5.0 mg/kg/injection, schedule: Q04DX003 (ip), vehicle: Klucel (hydroxypropylcellulose) (HPC) 107 % of control

CC(C)(C)c1ccc(C(c2ccc(C(C)(C)C)cc2)C(Cl)(Cl)Cl)cc1
inactive: [3] 88 % of control | dose: 100.0 mg/kg/injection, schedule: Q04DX003 (ip), vehicle: saline sonified 98 % of control | [4] 94 % of control | dose: 200.0 mg/kg/injection, schedule: Q04DX003 (ip), vehicle: saline sonified 95 % of control | dose: 400.0 mg/kg/injection, schedule: Q01DX009 (ip), vehicle: saline with Tween-80 92 % of control | dose: 400.0 mg/kg/injection, schedule: Q04DX003 (ip), vehicle: saline sonified 97 % of control

Cc1cc(O)c(N=Nc2ccc(C(=O)O)cc2)cc1C
inactive: dose: 25.0 mg/kg/injection, schedule: Q04DX003 (ip), vehicle: carboxymethylcellulose (CMC) 108 % of control | dose: 50.0 mg/kg/injection, schedule: Q04DX003 (ip), vehicle: carboxymethylcellulose (CMC) 103 % of control | dose: 100.0 mg/kg/injection, schedule: Q01DX001 (ip), vehicle: other 102 % of control | dose: 100.0 mg/kg/injection, schedule: Q04DX003 (ip), vehicle: carboxymethylcellulose (CMC) 101 % of control | dose: 200.0 mg/kg/injection, schedule: Q01DX001 (ip), vehicle: other 96 % of control | dose: 200.0 mg/kg/injection, schedule: Q04DX003 (ip), vehicle: carboxymethylcellulose (CMC) 101 % of control | dose: 400.0 mg/kg/injection, schedule: Q01DX001 (ip), vehicle: other 93 % of control | dose: 400.0 mg/kg/injection, schedule: Q04DX003 (ip), vehicle: carboxymethylcellulose (CMC) 95 % of control

O=C(Nc1cccc(Cl)c1)Oc1ccc(Cl)cc1Cl
inactive: [11] 96 % of control | [12] 100 % of control

CN(C)c1ccc(C(=S)c2ccc(N(C)C)nc2)cn1
inactive: [13] 102 % of control | [14] 98 % of control | [15] 88 % of control | [16] 106 % of control | [17] 98 % of control | [18] 104 % of control

CC1C(=O)OC2C1CCC1(C)C=CC(=O)C(C)C21 (configuration not stated)
inactive: [19] 102 % of control | [20] 103 % of control

COc1nc(N/N=C/c2ccccc2O)ccc1[N+](=O)[O-]
inactive: [14] 93 % of control | [16] 93 % of control | [18] 95 % of control

CCC(C(=O)NNC(=O)c1cc(OC)c(OC)c(OC)c1)c1ccccc1 (configuration not stated)
inactive: [5] 96 % of control | [11] 97 % of control and 101 % of control | dose: 100.0 mg/kg/injection, schedule: Q04DX003 (ip), vehicle: saline with Tween-80 100 % of control and 90 % of control | [6] 98 % of control | [12] 97 % of control and 98 % of control | dose: 200.0 mg/kg/injection, schedule: Q04DX003 (ip), vehicle: saline with Tween-80 93 % of control and 104 % of control | [7] 93 % of control | dose: 400.0 mg/kg/injection, schedule: Q04DX002 (ip), vehicle: saline with Tween-80 101 % of control and 90 % of control | dose: 400.0 mg/kg/injection, schedule: Q04DX003 (ip), vehicle: saline with Tween-80 92 % of control and 93 % of control

NNC(=O)CNc1cccc(F)c1
inactive: [21] 105 % of control | [22] 119 % of control

O=CN/N=C/c1ccc(Cl)cc1Cl
inactive: [19] 95 % of control | [20] 104 % of control

CC1(C)C2CCC1(C)C(NCc1cc(Br)cc(Br)c1O)C2 (configuration not stated)
inactive: [14] 92 % of control | [16] 97 % of control | [18] 98 % of control

NC(Cc1ccccc1Cl)C(=O)O (configuration not stated)
inactive: dose: 50.0 mg/kg/injection, schedule: Q01DX009 (ip), vehicle: Klucel (hydroxypropylcellulose) (HPC) 102 % of control | dose: 75.0 mg/kg/injection, schedule: Q01DX001 (ip), vehicle: Klucel (hydroxypropylcellulose) (HPC) 86 % of control | [13] 102 % of control | dose: 150.0 mg/kg/injection, schedule: Q01DX001 (ip), vehicle: Klucel (hydroxypropylcellulose) (HPC) 99 % of control | [15] 102 % of control | dose: 300.0 mg/kg/injection, schedule: Q01DX001 (ip), vehicle: Klucel (hydroxypropylcellulose) (HPC) 96 % of control

CCC(CO)N=Cc1ccccc1O.CCC(CO)N=Cc1ccccc1O.[Ni] (configuration not stated)
inactive: dose: 9.5 mg/kg/injection, schedule: Q01DX001 (ip), vehicle: other 102 % of control | dose: 19.0 mg/kg/injection, schedule: Q01DX001 (ip), vehicle: other 102 % of control | dose: 38.0 mg/kg/injection, schedule: Q01DX001 (ip), vehicle: other 94 % of control | dose: 75.0 mg/kg/injection, schedule: Q01DX001 (ip), vehicle: other 111 % of control

CC(C)(S)C(N)C(N)=O (configuration not stated)
inactive: [21] 103 % of control | [22] 97 % of control | dose: 400.0 mg/kg/injection, schedule: Q04DX002 (ip), vehicle: Klucel (hydroxypropylcellulose) (HPC) 97 % of control

CCSC(=O)N1C=Cc2ccccc2C1C#N (configuration not stated)
inactive: [8] 95 % of control | [13] 95 % of control | [9] 90 % of control | [15] 95 % of control | [10] 101 % of control | [17] 108 % of control

Nc1ncnc2nc(-c3ccc(Cl)c(Cl)c3)[nH]c12
inactive: dose: 37.5 mg/kg/injection, schedule: Q01DX001 (ip), vehicle: saline with Tween-80 93 % of control | dose: 75.0 mg/kg/injection, schedule: Q01DX001 (ip), vehicle: saline with Tween-80 87 % of control | dose: 150.0 mg/kg/injection, schedule: Q01DX001 (ip), vehicle: saline with Tween-80 87 % of control

CC(=O)NC1CCCC(C)N1 (configuration not stated)
inactive: dose: 50.0 mg/kg/injection, schedule: Q04DX003 (ip), vehicle: saline 98 % of control | dose: 100.0 mg/kg/injection, schedule: Q01DX001 (ip), vehicle: saline 110 % of control | [1] 104 % of control | dose: 200.0 mg/kg/injection, schedule: Q01DX001 (ip), vehicle: saline 100 % of control | [2] 96 % of control

Cc1nnnn1C1CCCCC1I (configuration not stated)
inactive: dose: 10.0 mg/kg/injection, schedule: Q01DX001 (ip), vehicle: other 102 % of control | dose: 20.0 mg/kg/injection, schedule: Q01DX001 (ip), vehicle: other 88 % of control
